What was measured:
[1] = tested on: IL-1β-stimulated cytokine expression in primary human corneal epithelial cells; test: IL-1β-stimulated cytokine production in primary human corneal epithelial cells (30-cytokine Luminex kit); conditions: primary HCECs, 10 ng/ml IL-1β, 18 h
Method: Primary HCECs were seeded in 24-well plates. […] Each treatment was performed in triplicate. Media were collected and used for determination of cytokine content using a 30-cytokine Luminex kit. Cell viability was determined by alamarBlue assay (LP06013).
Median fluorescence intensity (MFI) was used to obtain the concentration of each cytokines in pg/ml based on the standard curve of each cytokine assayed by Luminex. The linear range of the standard curve for each cytokine was used for determination of cytokine concentration. Duplicate values for each sample were averaged. Data were expressed as mean±SD. Statistical analysis was performed using one-way ANOVA-Dunnett's test, and P<0.05 was considered statistically significant.

[2] = tested on: IL-1β-induced PGE2 release in human conjunctival fibroblasts (HConF); test: IL-1β-induced PGE2 release in human conjunctival fibroblasts (ELISA); format: cell-based; conditions: 3-1000 nM, 18 hours
Method: Human conjunctival fibroblasts (HConF) were seeded in 24-well plates in complete Fibroblast Medium (FM) which contained 2% fetal bovine serum (FBS) and Fibroblast Growth Supplement (FGS). After reaching confluence (about 95%), cells were conditioned in basic FM that had been supplemented with 0.5% charcoal-dextran treated fetal bovine serum (CD-FBS) and without Fibroblast Growth Supplement (FGS) for 24 hours. […] Plates were performed in triplicate. Culture media were evaluated for PGE2 release by ELISA.

Cc1ccc2c(NCC(O)(CC(C)(C)c3cc(F)cc4c3OCC4)C(F)(F)F)cccc2n1 (stereo not shown) [BOL-303242-X]
Effect on IL-1β-stimulated G-CSF production [1]: significantly inhibited
Effect on IL-1β-stimulated production of 6 cytokines (IL-6, IL-7, MCP-1, TGF-α, TNF-α and VEGF) ([1]; comparable potency): significantly inhibited
Effect on IL-1β-stimulated production of 3 cytokines (GM-CSF, IL-8, and RANTES) ([1]; less potency compared to dexamethasone): significantly inhibited
Production of PGE2 by IL-1β-induced HConF [2]: successfully inhibits
